Patent publication US20070155882A1, “Curable liquid composition, cured film, and antistatic laminate” (priority 2003, published 2007)

Assay: Solubility of compound (B) in solvent (solid content of saturated solution)
Type: physicochemical
Description: Specifically, whether a specific solvent is the component (C) or the component (D) is determined depending on the type of the component (B). […] In more detail, the solubility is determined by measuring the solid content of the component (B) in a solution consisting of the component (B) and the solvent.
The supernatant liquid of the resulting mixture was dried on a hot plate at 120° C. for one hour and weighed to calculate the solid content.

[1] = solvent: IPA (isopropyl alcohol)

Row | solubility in solvent [1] | solubility in solvent (solvent: MeOH (methanol)) | solubility in solvent (solvent: EtOH (ethanol)) | solubility in solvent (solvent: water) | Compound
1 | ≧50 wt % | ≧50 wt % |  |  | C=CC(=O)OCC(COCC(COC(=O)C=C)(COC(=O)C=C)COC(=O)C=C)(COC(=O)C=C)COC(=O)C=C [Example B-1, Dipentaerythritol hexaacrylate]
2 | 7.1 wt % | 49 wt % | 1.8 wt % | 1.2 wt % | C=CC(=O)OCCn1c(=O)n(CCOC(=O)C=C)c(=O)n(CCOC(=O)C=C)c1=O [Example B-3, Tris(2-hydroxyethyl)isocyanurate triacrylate]
3 | ≧50 wt % | ≧50 wt % | ≧50 wt % | <0.1 wt % | Tricyclodecanediyldimethanol diacrylate [Example B-2]
